The values that follow come from patent US20040053872A1, “New sequences” (priority 2000, published 2004).

Data set [1] deals with recombinant HIV-1 RT, ref RT (HIV type B, clone BH 10) (Human immunodeficiency virus type 1 group M subtype B, UniProt P03366). Particulars: read-out: Inhibition of binding to primer (BIC50), immobilised primer, binding 90 min at 33° C. Here is the method: (§1) (iii) Protocol for RT binding inhibition (BIC) assay: The study was performed in a modified DNA polymerase assay. The inhibitors were serially diluted in five steps, enzyme dilution was added and the enzyme/inhibitor mixtures were incubated for 30 minutes at 33° C. Aliquots of the enzyme/inhibitor mixture were transferred to each well of a microtiter plate containing either immobilised primer, or primer/template. The enzyme was allowed to bind to the immobilised polymer for 90 min at 33° C. The amount of RT used was standardised to an activity corresponding to 40-60 pg (3.3-5.0×10^−16 mol) reference HIV-1 RT per well. The plates were then washed to remove unbound enzyme whereupon the amount of bound enzyme was determined by addition of the appropriate reaction solution for polymerisation (i e a reaction solution devoid of primer for studies of primer binding and a reaction solution devoid of both primer and template for studies of binding to primed template). The polymerase reaction was allowed to proceed for 3 hours at 33° C., whereupon the reaction was terminated by a wash of the plate.
(§2) The capacity of the indicated substances to inhibit the binding to primer or to primed DNA template of a panel of recombinant HIV 1 subtype B RTs was studied according to “Protocol for RT binding inhibition (BIC) assay” (protocol (iii) above).

The target of data set [2] is T1, recombinant HIV-1 RT K103N/E478Q (Human immunodeficiency virus type 1 group M subtype B, UniProt P03366, E1077Q/K702N).
T1 construct: performed by recombinant HIV-1 RT:s with defined
Particulars: binding 90 min at 33° C. The method, then:
as §1, §2

Data set [3] has as its system Mut1 (RNase H inactive mutant of HIV-1 RT). The experiment in a line: Gel mobility shifts in native polyacrylamide gel electrophoresis (PAGE). Format: binding. The settings on record: native 20% PAGE; ammonium sulphate up to […]. The source says:
In the following experiment, the terms “34-mer” and “35-mer” refer to SEQ ID NO:3 (produced in example A1 above) and SEQ ID NO:4 (produced in example A2 above), respectively. […] Natural RT molecules have an RNase H activity which normally cleaves RNA molecules. […] This mutant is produced according to the method given in Schatz, O., Cromme, F. V., Grüninger-Leitch, F. and Le Grice, S. F. J., Febs Letter. Vol.257, No.2 p.311-314. This RT-mutant is further on referred to as Mut1. The following experiments are carried out:
2. Gel mobility shifts in polyacrylamide gel electrophoresis (PAGE) experiments.
a) Native 20% PAGE gel is run at 4-5° C. Samples are incubated at 4° C. in 50 mM hepes buffer and 5 mM magnesium chloride and varying salt concentrations as indicated below.
Samples are incubated for 90 min at 4° C. prior to a further 10 min incubation at 4° C. with ammonium sulphate and/or KCl. Samples applied to lanes 4 and 5 have twice the amount of 34-mer used for the other samples.
b) Native 20% PAGE gel run at 4-5° C. Samples are incubated at 4° C. in 50 mM hepes buffer and 5 mM magnesium chloride, with varying concentrations of ammonium sulphate.
Native 20% PAGE gel is run at 4-5° C. Samples are incubated at 4° C. in 50 mM hepes buffer, 15 mM manganese sulphate, 1 mM EDTA and 0.25 mM EGTA.
Samples are incubated 10 min at room temperature prior to a 60 min incubation at 4° C. One μl of sample solution is applied per lane. Electrophoresis is conducted with up to 400 volts while cooling to approximately 4° C. After 0.209 kWh the gel is silver stained.

Read-outs that look alike come from different tables or passages of the source. Strand notation (5' to 3'): a small letter for the sugar, then the base; units joined by * are phosphorothioate-linked, units joined directly phosphodiester-linked; [ ] holds rarer units or linkages, { } end groups; capitals alone tell only the bases. r = 2'-OH (RNA)

As to “substance 198: 15-mer RNA phosphorothioate with the base sequence of tRNALys3 anticodon stem and loop, SEQ ID NO:7 (rC*rA*rG*rA*rC*rU*rU*rU*rU*rA*rA*rU*rC*rU*rG) [reference compound]”, the IC50 was determined as 100 nM in data set [1]; 400 nM in data set [2] (immobilised primer, read-out: Inhibition of binding to primer (BIC50)); 1000 nM in data set [2] (immobilised primer/template, read-out: Inhibition of binding to template/primer (BIC50)). For the same substance, the “Complex with Mut1 at high salt concentrations” value in data set [3] is reported as “dissociates from Mut1”.
